Like-named read-outs stand apart in the source and are kept apart here.

In general, melting point refers to the temperature, or range, at which the solid turns liquid.

Data set [1] has as its system porcine rotavirus KJ205 (G5P[7]). Briefly: CPE inhibition effect, porcine rotavirus KJ205 (TF-104 cells treated after virus inoculation). The format is cell-based. Conditions: for EC50: TF-104 cells; for selectivity ratio: rhesus monkey, read-out: S.I. (selective index, CC50/EC50). How it is done:
In order to the CPE (cytopathic effect) reduction effects and virucidal effects of the compounds separated from licorice on bovine rotavirus NCDV (G6P[1]) and porcine rotavirus KJ205 […][7]), the following in vitro experiment was performed using the fetal rhesus monkey kidney cell line TF-104. Inhibition %=(O.D) value of sample-treated group-(O.D) value of infected+non-administered control/(O.D) value of non-infected+non-administered control-(O.D) value of infected+non-administered control×100 [Equation 1] In the above equation, the O.D value means the absorbance measured at 540 nm. Meanwhile, in order to examine the inhibitory effects of the compounds separated from licorice on the CPE of bovine rotavirus NCDV (G6P[1]) and porcine rotavirus KJ205 […][7]), […] were washed twice with alpha-MEM containing only an antibiotic, after which the viruses were inoculated into the TF-104 cells and incubated at 37° C. for 1 hour. After 1 hour, the inoculated virus liquids were completely removed, the virus-inoculated TF-104 cells were treated with varying concentrations of the licorice extract and the polyphenolic compounds. Further, the cytopathic effect inhibition (inhibition %) of the compounds separated from licorice were calculated using equation 1 above in the same manner as described above, and the results of the calculation are shown in Table 1 below.

Data set [2] can be described thus: Cytotoxicity (CC50) in TF-104 cells. The class given is cell-based. Conditions: rhesus monkey, TF-104 cells (fetal rhesus monkey kidney cell line). How it is done: In order to the CPE (cytopathic effect) reduction effects and virucidal effects of the compounds separated from licorice on bovine rotavirus NCDV (G6P[1]) and porcine rotavirus KJ205 […][7]), the following in vitro experiment was performed using the fetal rhesus monkey kidney cell line TF-104. First, TF-104 cells were added to a 96-well microplate at a density of 4×10^4 cells/well and cultured with alpha-MEM medium (penicillin 100 units, […], 5% FBS). When the TF-104 cells formed a monolayer, the cells were washed twice with alpha-MEM containing only an antibiotic. Each of NCDV and KJ205 was diluted to an MOI of 0.01 and placed in EP tubes. Each of the licorice extract and the polyphenolic compounds, diluted with dimethylsulfoxide (DMSO), was placed in each of the tubes at varying concentrations and then allowed to react at 4° C. for 1 hour. After 1 hour, the reaction material was inoculated into the washed TF-104 cells in such a manner that one sample concentration was inoculated into 3 wells (hereinafter referred to as “sample-treated groups”). Meanwhile, a non-infected+non-administered control (cell group not infected with NCDV or KJ205 and not treated with the compound) and an infected+non-administered control (virus control; a cell group infected with NCDV or KJ205, but not treated with the compound) were allowed to react under the same conditions for 1 hour, and then inoculated into the TF-104 cells, which were then incubated at 37° C. for 1 hours. After 1 hour, the medium was completely removed from the plate, which was then washed once with PBS. Then, […] medium containing 1 mg/mL of trypsin and antibiotic were dispensed into each well of the plate and incubated at 37° C. for 5-6 days. In the case of the infected +non-administered control group, incubation was performed for 5-6 days until the cytopathic effect (CPE) of the virus clearly appeared. […] After 5-6 days of the incubation, in order to examine the viability of the cells, […] solution (Sigma, UK) was added to each well of the place and allowed to react at 37° C. for 2 hours. Then, the medium was removed, […] solution (1% glacial acetic acid, 49% DDW, 50% EtOH) was added to each well, and after 15 minutes, the absorbance at 540 nm was measured. The virucidal effects (inhibition %) of the inventive compounds separated from licorice compared to the non-infected+non-administered control group and the infected+non-administered control group were calculated using the following equation 1, and the results of the calculation are shown in Table 1 below.

In data set [3] the test system is porcine rotavirus KJ205 (G5P[7]). Briefly: Virucidal effect against porcine rotavirus KJ205 (sample pre-reacted with virus, neutral red readout in TF-104 cells). The class given is cell-based. Conditions: for EC50: TF-104 cells; for virucidal effect, result in words: bovine and/or porcine rotavirus as worded. As to the method: (§1) In order to the CPE (cytopathic effect) reduction effects and virucidal effects of the compounds separated from licorice on bovine rotavirus NCDV (G6P[1]) and porcine rotavirus KJ205 (G5P[7]), the following in vitro experiment was performed using the fetal rhesus monkey kidney cell line TF-104.
First, TF-104 cells were added to a 96-well microplate at a density of 4×10^4 cells/well and cultured with alpha-MEM medium (penicillin 100 units, […], 5% FBS). When the TF-104 cells formed a monolayer, the cells were washed twice with alpha-MEM containing only an antibiotic. Each of NCDV and KJ205 was diluted to an MOI of 0.01 and placed in EP tubes. Each of the licorice extract and the polyphenolic compounds, diluted with dimethylsulfoxide (DMSO), was placed in each of the tubes at varying concentrations and then allowed to react at 4° C. for 1 hour. After 1 hour, the reaction material was inoculated into the washed TF-104 cells in such a manner that one sample concentration was inoculated into 3 wells (hereinafter referred to as “sample-treated groups”). Meanwhile, a non-infected+non-administered control (cell group not infected with NCDV or KJ205 and not treated with the compound) and an infected+non-administered control (virus control; a cell group infected with NCDV or KJ205, but not treated with the compound) were allowed to react under the same conditions for 1 hour, and then inoculated into the TF-104 cells, which were then incubated at 37° C. for 1 hours. After 1 hour, the medium was completely removed from the plate, which was then washed once with PBS. Then, […] medium containing 1 mg/mL of trypsin and antibiotic were dispensed into each well of the plate and incubated at 37° C. for 5-6 days. In the case of the infected +non-administered control group, incubation was performed for 5-6 days until the cytopathic effect (CPE) of the virus clearly appeared. […] After 5-6 days of the incubation, in order to examine the viability of the cells, […] solution (Sigma, UK) was added to each well of the place and allowed to react at 37° C. for 2 hours. Then, the medium was removed, […] solution (1% glacial acetic acid, 49% DDW, 50% EtOH) was added to each well, and after 15 minutes, the absorbance at 540 nm was measured. The virucidal effects (inhibition %) of the inventive compounds separated from licorice compared to the non-infected+non-administered control group and the infected+non-administered control group were calculated using the following equation 1, and the results of the calculation are shown in Table 1 below.
Inhibition %=(O.D) value of sample-treated group−(O.D) value of infected+non-administered control/(O.D) value of non-infected+non-administered control−(O.D) value of infected+non-administered control×100 [Equation 1]
(§2) In the above equation, the O.D value means the absorbance measured at 540 nm.

In data set [4] the test system is bovine rotavirus NCDV (G6P[1]). In words: Virucidal effect against bovine rotavirus NCDV (sample pre-reacted with virus, neutral red readout in TF-104 cells). The class given is cell-based. How it is done: as §1
First, TF-104 cells were added to a 96-well microplate at a density of 4×10^4 cells/well and cultured with alpha-MEM medium (penicillin 100 units, […], 5% FBS). When the TF-104 cells formed a monolayer, the cells were washed twice with alpha-MEM containing only an antibiotic. Each of NCDV and KJ205 was diluted to an MOI of 0.01 and placed in EP tubes. […] Then, the medium was removed, […] solution (1% glacial acetic acid, 49% DDW, 50% EtOH) was added to each well, and after 15 minutes, the absorbance at 540 nm was measured. The virucidal effects (inhibition %) of the inventive compounds separated from licorice compared to the non-infected+non-administered control group and the infected+non-administered control group were calculated using the following equation 1, and the results of the calculation are shown in Table 1 below. […]
as §2

Setting [5] is: CPE inhibition effect section, KJ205 (G5P[7]), read-out: CC50.
Setting [6] is: Virucidal effect, KJ205 (G5P[7]).

Take `O=C(/C=C/c1ccc(O)cc1)c1ccc(O)cc1O` [Compound 1, isoliquiritigenin]: in data set [1], the EC50 is 35.3 µM and the selectivity ratio came to 3.9. Moreover, in data set [2] (setting [5]), the CC50 worked out at 138 µM.

Consider `COc1cc(O)ccc1C(=O)/C=C/c1ccc(O)cc1` [Compound 2, 2-methoxyisoliquiritigenin], for which, in data set [1], the EC50 was determined as 24 µM and the selectivity ratio was found to be 11.7. The CC50 in data set [2] (setting [5]) worked out at 280 µM.

In the case of `COc1c(CC=C(C)C)c(O)cc2oc(-c3ccc(O)cc3O)cc12` [Compound 3, licocoumarone], the melting point lay in the range of 183 to 185 °C. In data set [1], the EC50 was 26.1 µM and the selectivity ratio was 2.3. Moreover, the EC50 in data set [3] (setting [6]) is 26.1 µM. For the same molecule, the “virucidal effect, result in words” value in data set [3] was “good inhibitory activities against bovine and porcine rotaviruses”. In data set [2] (setting [5]), the CC50 was found to be 59.6 µM.

In the case of `COc1c(CC=C(C)C)c(O)cc2c1CC(c1ccc(O)cc1O)CO2` (stereo not drawn) [Compound 4, glyasperin C], the EC50 in data set [3] (setting [6]) turned out to be 18.7 µM; in data set [4] (Rotavirus A, TF-104 cells, read-out: EC50 (50% concentration from inhibition concentration)) it was 26.2 µM. Moreover, the selectivity ratio in data set [3] (rhesus monkey, Virucidal effect, KJ205 (G5P[7]), read-out: S.I. (selective index, CC50/EC50)) worked out at 2.1; in data set [4] (rhesus monkey, read-out: S.I. (selective index, CC50/EC50)) it was 1.5. In data set [3], the “virucidal effect, result in words” value is listed as “selective virucidal effects against porcine rotavirus”. In addition, the CC50 in data set [2] (Virucidal effect section, NCDV (G6P[1]) columns, read-out: CC50 (50% concentration from cytotoxic concentration)) worked out at 39.1 µM.
